Test results: PubChem BioAssay (NCI)
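Where inhibition never reached the appropriate level, the endpoint shown equals the highest concentration tested. Otherwise, values were interpolated linearly from a five-concentration, 48-hour dose response in 96-well plates. Definition used: TGI = concentration required for complete inhibition of growth.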 *1 amine or outer side, *2 acyl side, *3 side chain or, on linkers, in order; H or OH if unused. Where a SMILES comes first, the peptide text is derived from it. [ ]: non-standard residue; d: D form. ξ: configuration not given here. X22 = O=C(C(CC(O)CO)O[*:1])[*:2]; Ile(3ξ) = CCC(C)[C@H](N)C(=O)O; NMeV = CN[C@H](C(=O)O)C(C)C; NMeA = CN[C@@H](C)C(=O)O; βAla = NCCC(=O)O

What was measured:
Test in all cases: inhibition of tumour cell growth, NCI panel, 48 h
SNB-78 CNS = test system: SNB-78 CNS
LXFL 529 NSCLC = test system: LXFL 529 NSCLC
DLD-1 colon = test system: DLD-1 colon
M19-MEL melanoma = test system: M19-MEL melanoma
XF 498 CNS = test system: XF 498 CNS
HOP-18 NSCLC = test system: HOP-18 NSCLC
DMS 273 small cell lung = test system: DMS 273 small cell lung
KM20L2 colon = test system: KM20L2 colon
RXF-631 renal = test system: RXF-631 renal

| SMILES | TGI (SNB-78 CNS) [µM] | TGI (LXFL 529 NSCLC) [µM] | TGI (DLD-1 colon) [µM] | TGI (M19-MEL melanoma) [µM] | TGI (XF 498 CNS) [µM] | TGI (HOP-18 NSCLC) [µM] | TGI (DMS 273 small cell lung) [µM] | TGI (KM20L2 colon) [µM] | TGI (RXF-631 renal) [µM] |
| --- | --- | --- | --- | --- | --- | --- | --- | --- | --- |
| C[N+]1(C)C[C@@H](O)C[C@@H]1C(=O)[O-] | > 100 | > 100 | > 100 | > 100 | > 100 | > 100 | > 100 | > 100 |  |
| CCOC(=O)C1=C(c2ccccc2)N(C(C)=O)Cc2ccccc21 |  | > 100 | > 100 | 39.3 | 25 | 99.4 | 29.8 | 53.7 |  |
| COC1=CC(=O)C2C(C1=O)C(c1ccc(Cl)cc1)[C@@H]2C (some centres undefined) | > 100 | 32.7 | 70.5 | 97.9 | 37.5 | 25.2 | > 100 | > 100 |  |
| Nc1nc2ncn(CC(O)COC(=O)c3ccccc3)c2c(=O)[nH]1 (centres undefined) | > 100 | > 100 | > 100 | > 100 | > 100 | > 100 | > 100 | > 100 | > 100 |
| COC(=O)C1(O)c2ccccc2N=C2C1CCN2C (centres undefined) | > 100 | > 100 | > 100 |  | > 100 | > 100 |  | > 100 |  |
| O=C(O)COc1ccc(C(=O)/C(SS/C(C(=O)c2ccc(OCC(=O)O)c(Cl)c2Cl)=C2\C=C(c3ccccc3Cl)SS2)=C2/C=C(c3ccccc3Cl)SS2)c(Cl)c1Cl | 52.5 | 19.9 | > 65.4 | > 66.6 | 50.4 | > 72.4 | 56.9 | > 100 | > 84.9 |
| CC(=O)NC(CCCNC(=O)OCc1ccccc1)C(=O)O (centres undefined) | > 100 | > 100 | > 100 | > 100 | > 100 |  | > 100 | > 100 | > 100 |
| COC(=O)N/N=C(/c1nc2ccc([N+](=O)[O-])cc2[nH]c1=O)C(O)c1ccc(OC)c(OC)c1 (centres undefined) | > 100 | > 100 | > 100 | > 100 | > 100 | > 100 | 63.7 | > 100 | > 100 |
| CCC(C)[C@@H]1NC(=O)[C@@H]2CCCN2C(=O)C(CC(O)CO)OC(=O)CCNC(=O)[C@H](C)N(C)C(=O)[C@H](C(C)C)N(C)C1=O (some centres undefined) (cyclo([Ile(3ξ)][NMeV][NMeA][βAla][X22]P)) | > 100 | > 100 | > 100 | > 100 | > 100 |  | > 100 | > 100 | > 100 |
| Cc1nc2ccc(N)cc2[nH]c1=O | > 100 | > 100 | > 100 | > 100 |  |  | > 100 | > 100 | > 100 |
| C=C(C)CC(C)(c1cc2ccccc2n1C)N1CCOCC1 (centres undefined) |  | > 100 | > 100 | > 100 | > 100 | > 100 | > 100 | > 100 | > 100 |
| N#CC1CCCCC1NC1(C#N)CCCCC1 (centres undefined) | > 100 | > 100 | > 100 |  | > 100 |  | > 100 | > 100 |  |
| CCOC(=O)CC(NCc1ccc(N=Cc2nc3ccc(C(F)(F)F)cc3nc2-c2ccccc2)cc1)C(=O)OCC (centres undefined) | > 100 | > 100 | > 100 | > 100 | 40.5 | > 100 | > 100 | > 100 |  |
| COC(=O)C(Cc1nc2ccccc2[nH]c1=O)C(=O)C(=O)Nc1ccc(F)cc1 (centres undefined) |  | 30 | > 100 | > 100 | > 100 | > 100 | > 100 | > 100 | > 100 |
| Cc1ccc2nc3c(C)cc(=O)cc-3sc2c1 | > 100 | > 100 | > 100 | 31 |  | > 100 | > 100 | > 100 | > 100 |
| CSc1nc2nc(C(O)C(O)C(O)CO)cnc2c(=O)[nH]1 (centres undefined) | > 100 | > 100 | > 100 | > 100 | > 100 |  | > 100 | > 100 |  |
| COc1c(C)c(O)c2c(c1C)OC(c1ccccc1)CC2=O (centres undefined) | > 100 | > 100 | > 100 | > 100 |  | > 100 | > 100 | > 100 |  |
| CCSc1nnc(-c2ccccc2)nc1Cc1ccc(OC)cc1 | > 100 | > 100 | > 100 | > 100 | > 100 | > 100 | > 100 | > 100 |  |
